Entries after “also recorded” stand apart in the source; their conditions may differ.
Assays:
Type in all cases: cell-based, human
hESCs = test: QPCR analysis of mesoderm subtype markers in differentiating hESCs; conditions: for Expression of the lateral plate marker KDR: in the presence of activin A (10 ng/ml), BMP4 0 to 100 ng/ml
Procedure: Human embryonic stem cells (hESCs) were cultured in chemically defined medium (CDM) with activin A (10 ng/mL) and FGF2 (20 ng/mL) to maintain pluripotency (Vallier et al, 2005).
An efficient 36 h protocol to differentiate hESCs into early mesoderm was named FlyB (F, FGF2 at 20 ng/ml; Ly, LY294002 at 10 μM and B, BMP4 at 10 ng/ml). Differentiation of paraxial mesoderm can be induced by removal of BMP4 and blockage of the PI3K pathway (1.5 day FLyB+3.5 days FLy, where F is FGF2 at 5-25 ng/ml and Ly is LY294002 at 5-10 μM). Differentiation of lateral plate mesoderm can be induced by increasing the levels of BMP4 and removal of Ly (1.5 day FLyB+3.5 days FB, where F is FGF2 at 5-25 ng/ml and B is BMP4 at […]).
(§1) Total RNA was extracted with RNeasy Mini kit according to the manufacturer's instructions (QIAGEN). One microgram of RNA was reverse-transcribed with Fermentas Maxima First Strand cDNA Synthesis Kit. Quantitative polymerase chain reaction (QPCR) mixtures were prepared as described (Applied Biosystems SYBR Green PCR Master Mix). QPCR reactions were performed by Applied Biosystems 7500 Fast Real-Time PCR System with technical duplicates and normalized to Porphobilinogen Deaminase (PBGD) in the same run. Error bars on all QPCR graphs represent standard error of mean from three independent biological replicates.
The protocol used is shown schematically in FIG. 1A, depicting the growth factors used and the duration of the treatment. For the first 36 hours, growth factors used were FLyB10 [FGF2 (20 ng/mL), BMP4 (10 ng/mL) and LY294002 (10 μM)] to induce primitive streak). The subsequent 3.5 days of differentiation specifies mesoderm subtypes. FLy [FGF2 (20 ng/mL) and LY294002 (10 μM)] for somitic mesoderm; FB50 [FGF2 (20 ng/mL) and BMP4 (50 ng/mL)] for lateral mesoderm.
QPCR analysis was performed for Brachyury, MEOX1 and FLK1 in hESCs grown according to the protocol depicted in FIG. 1A and harvested at day 5. The BMP4 gradient tested ranged from 0 ng/mL (Nog) to 100 ng/mL (B100). The bars in FIG. 2 represent the absence or presence of activin A (A) added at 10 ng/ml respectively. […] Therefore, absence of activin A promoted mesoderm formation.
We then evaluated the effect of 10 μM LY294002 (Ly) on mesoderm subtype specification. QPCR analysis of LMO2, CD31, PECAM1, NKX2.5, ISL1, MEOX1, TBX6, TCF15 and PAX1 was performed in hESCs grown for 36 h in FLyB10 and then for 3.5 additional days in F or FB50, with (RH bars) or without (LH bars) […]. […] On the other hand, the presence of Ly promoted the expressions of somitic markers—MEOX1 and TBX6. […] Again, the presence of 50 ng/ml BMP4 (B50) inhibited the expression of all paraxial markers and promoted the expression of lateral plate markers.

derived SMCs [1] = test: Contraction study; conditions: for Percentage of all derived SMCs that contracted: upon carbachol or angiotensin II treatment
Procedure: (§2) On culture dishes, SMCs were loaded with the calcium-sensitive fluorophore, Fluo-4 AM (2.5 μM; Molecular Probes). Cells were typsinised into single-cell suspension for calcium flux measurement using the CyAn ADP flow cytometer (Packman Coulter). Contraction was induced by treating the cells with carbachol (100 μM). Fluo-4 was excited by the 488 nm laser and the fluorescence emission was measured by the FL1 channel. Cells were analysed just before addition of carbachol, 1 minute and 3 minutes after addition. On the other hand, contraction images of adherent SMCs were acquired by an inverted microscope (Olympus) before and after 10 minutes of carbachol treatment.
Over 50% and 20% of all derived SMCs contracted upon carbachol and angiotensin II treatments, respectively.

derived SMCs [2] = test: Calcium flux measurement with Fluo-4; conditions: carbachol 100 μM
Procedure: as §2
Changes of calcium signalling in cells are indicative of their contractile properties in response to carbachol, a potent vasoconstrictor. The origin-specific SMCs were loaded with fluo-4, a calcium-sensitive dye, prior to the addition of carbachol (FIG. 13) and fluorescent emission from the fluo-4 measured over time (T) after the addition of carbachol to the origin-specific SMCs. Hela cells were used as negative control.
To assess SMC contractile potential, we initially performed immunostaining for vinculin and phalloidin staining for actin filaments, Well-developed focal adhesion complexes were detected in all three SMC subtypes. The cells were then preloaded with a calcium-sensitive dye, Fluo-4. Carbachol (100 μM) stimulated an increase in Fluo-4 fluorescence intensity in the derived SMCs within 1 min of treatment (FIG. 14), indicating increased intracellular calcium flux. After 2 min of treatment, Fluo-4 intensity decreased, approaching original basal levels by 5 min.

[3] = tested on: hPSC-derived SMCs and rat aortic SMCs; test: MMP and TIMP expression after IL-1β treatment (qRT-PCR); conditions: IL-1β 10 ng/ml
Procedure: as §1
Only NE-SMCs proliferated in response to TGF-β1 (FIGS. 24, 25). TGF-β1 may have enhanced cell proliferation by autocrine production of TGF-β2 and PDGFA. We investigated whether TGF-β1 stimulated greater auto-induction of TGF-β2 and PDGFA in SMCs of a neuroectoderm origin. […] Correspondingly, elevated TGFB2 and PDGFA protein levels were found in NE-SMC lysates after TGF-β1 treatment (FIG. 22). Taken together, the data on requirement for MKL2 and their unique proliferative and secretory responses validate the hypothesis that our different SMC subtypes are analogous to the distinct lineage-dependent SMC populations documented in vivo. […]

NE-SMCs [4] = test: Cell cycle analysis; conditions: after 24 h, compared to vehicle control
Text: (§3) To confirm that we had generated origin-specific SMC subtypes, we used cytokines known to induce unique responses in aortic SMCs of distinct origins. Angiotensin II (Ang II) promotes medial hyperplasia in the ascending aorta (neuroectoderm derivative) but not the descending aorta (mesoderm derivative), TGF-β1 also encourages greater cell proliferation in SMCs of neuroectoderm origin compared to those of mesodermal origin. […] Cell cycle analysis confirmed that Ang II, TGF-β1 or serum each increased the proportion of NE-SMCs in S and G2-M phases compared to vehicle control after 24 h (FIGS. 25A and 25B).

NE-SMCs [5] = test: Auto-induction of TGF-β2 and PDGFA (qRT-PCR, western blot)
Procedure: as §1
To obtain protein extracts, cells were washed twice with ice-cold PBS. Ice-cold RIPA buffer was then added to the cells. Cells were scraped off the culture dishes and transferred into a centrifuge tube. Suspension was agitated by an orbital shaker for 15 minutes to lyse the cells at 4° C. Lysate was centrifuged at 14,000 g in a precooled centrifuge for 15 minutes and the supernatant was kept frozen at −80. Protein concentrations were determined using Thermo Scientific BCA Protein Assay Kit. 20 μg total protein was separated by SDS-PAGE and on stacking gel (30% acrylamide, 1M Tris, 10% SDS, 10% APS, TEMED) then transferred to a nitrocellulose membrane. […]

LM-SMC = test: Proliferation response by MTT assay; conditions: over 3 d; Ang II 1 μM, TGF-β1 5 ng/ml, serum 10%
Text: as §3

NE-SMC = test: Proliferation response by MTT assay; conditions: over 3 d; Ang II 1 μM, TGF-β1 5 ng/ml, serum 10%
Text: as §3

PM-SMC = test: Proliferation response by MTT assay; conditions: over 3 d; Ang II 1 μM, TGF-β1 5 ng/ml, serum 10%
Text: as §3

[6] = 50 ng/ml BMP4 (B50), 36 h FLyB10 then 3.5 days

## O=c1cc(N2CCOCC2)oc2c(-c3ccccc3)cccc12 [LY294002, 2-morpholin-4-yl-8-phenylchromen-4-one, reference compound]
hESCs; 10 μM LY294002 in F or FB50, compared to no LY294002
  Expression of lateral plate markers LMO2, PECAM1, NKX2-5, ISL1: had no effect or inhibited; also recorded: significantly downregulated
hESCs; 10 μM LY294002 in the presence of 20 ng/ml FGF2 (F) alone, versus no LY294002
  Expression of paraxial markers MEOX1, TBX6, TCF15, PAX1: promote paraxial mesoderm patterning; also recorded: significantly promoted

## C[N+](C)(C)CCOC(N)=O [carbachol]
Derived SMCs [1]; 10 min of carbachol treatment, n=20
  Change of cell surface area in contracting cells: 10-20%
Derived SMCs [1]
  Percentage of all derived SMCs that contracted: Over 50%
Derived SMCs [2]
  Fluo-4 fluorescence intensity (intracellular calcium flux): transient increase
  Time to increase in Fluo-4 fluorescence intensity: ≤ 1 min
Derived SMCs [2]; listed as Carbachol
  Fluo-4 fluorescence intensity (intracellular calcium flux): increase

## IL-1β: an atherogenic cytokine
[3]; 6 h
  Induction of Mmp9 relative to control in rat SMCs versus hPSC-derived SMCs: ~100 fold
[3]; SMC subtypes and rat SMCs of distinct origins
  MMP9 and TIMP1 expression levels: differentially activated

## TGF-β1: homodimeric polypeptide which regulates proliferation and differentiation
NE-SMCs [4]
  Proportion of cells in S and G2-M phases: increased
NE-SMCs [5]; 10 h of TGF-β1 (5 ng/ml), compared with vehicle control, only in NE-SMCs
  TGFB2 and PDGFA expression: significantly upregulated
NE-SMCs [5]; after TGF-β1 treatment, western blot
  TGFB2 and PDGFA protein levels in lysates: elevated
LM-SMC
  Proliferation: did not
NE-SMC
  Proliferation: proliferated
PM-SMC
  Proliferation: did not

## angiotensin II: vasoconstrictor; promotes medial hyperplasia in the ascending aorta (DRVYIHPF; Angiotensin-2; UniProt P01019 25-32, looked up) [reference compound]
Derived SMCs [1]
  Percentage of all derived SMCs that contracted: > 20%
NE-SMCs [4]
  Proportion of cells in S and G2-M phases: increased
LM-SMC
  Proliferation: did not
NE-SMC
  Proliferation: proliferated
PM-SMC
  Proliferation: did not

B1: activin A: dimeric polypeptide stimulating the Activin/Nodal pathway (protein, UniProt P08476 311-426, looked up)
Inhibin beta A chain: GLECDGKVNICCKKQFFVSFKDIGWNDWIIAPSGYHANYCEGECPSHIAGTSGSSLSFHSTVINHYRMRGHSPFANLKSCCVPTKLRPMSMLYYDDGQNIIKKDIQNMIVEECGCS
modifications: Inhibin beta A chain
hESCs; absence versus presence of activin A at 10 ng/ml, day 5
  Expression of Brachyury (T), MEOX1 and FLK1: upregulated
hESCs; hESCs harvested at day 5
  Requirement for mesoderm patterning: not required

B2: Noggin: a BMP antagonist (protein, UniProt Q13253 28-232, looked up)
Noggin: QHYLHIRPAPSDNLPLVDLIEHPDPIFDPKEKDLNETLLRSLLGGHYDPGFMATSPPEDRPGGGGGAAGGAEDLAELDQLLRQRPSGAMPSEIKGLEFSEGLAQGKKQRLSKKLRRKLQMWLWSQTFCPVLYAWNDLGSRFWPRYVKVGSCFSKRSCSVPEGMVCKPSKSVHLTVLRWRCQRRGGQRCGWIPIQYPIISECKCSC
hESCs; day 5
  Expression of the lateral plate marker KDR: same effect as B0

B3: BMP4: Bone Morphogenic Protein 4, TGFβ ligand stimulating SMAD1, SMAD5 and SMAD9 signalling (protein, UniProt P12644 293-408, looked up)
Bone morphogenetic protein 4: SPKHHSQRARKKNKNCRRHSLYVDFSDVGWNDWIVAPPGYQAFYCHGDCPFPLADHLNSTNHAIVQTLVNSVNSSIPKACCVPTELSAISMLYLDEYDKVVLKNYQEMVVEGCGCR
hESCs; [6]
  Expression of all paraxial markers: inhibited
  Expression of lateral plate markers: promoted
hESCs; hESCs harvested at day 5, BMP4 0 to 100 ng/mL
  Expression of FLK1: increased
hESCs; day 5
  Expression of the lateral plate marker KDR: promote the expression

From US9238795B2, “Populations of smooth muscle cells of specific embryonic lineages” (Cambridge Enterprise Limited, priority 2011, dated 2016)
